One may read the EC50 as the midpoint of the concentration-response curve. For orientation: IC50 means the midpoint of a concentration-inhibition curve.

The target of data set [1] is T1, P-gp (Homo sapiens, UniProt P08183). Kind of data set: Reversal of P-gp-mediated MDR in LCC6MDR cells (MTS cell viability, 5 days). The protocol: To each well of a 96-well plate, 6500 cells of LCC6MDR were seeded in 180 μL supplemented medium. A 10 µL compound (FD18, 14a, FM04 or FM327) at different concentrations (0, 62.5, 125, 250, 500 and 1000 nM) was added to the well. […] The final volume in each well was 200 µL and the 96-well plate was incubated at 37 °C for 5 days. The cell viability was determined using the MTS assay as reported previously. The % of cell survival, IC50 of anticancer drugs towards the LCC6MDR and the EC50 of modulators were analyzed using nonlinear regression in Prism 5.0 (Prism version 5.0, GraphPad software, San Diego, CA, USA).
T1 sequence (P08183 whole entry): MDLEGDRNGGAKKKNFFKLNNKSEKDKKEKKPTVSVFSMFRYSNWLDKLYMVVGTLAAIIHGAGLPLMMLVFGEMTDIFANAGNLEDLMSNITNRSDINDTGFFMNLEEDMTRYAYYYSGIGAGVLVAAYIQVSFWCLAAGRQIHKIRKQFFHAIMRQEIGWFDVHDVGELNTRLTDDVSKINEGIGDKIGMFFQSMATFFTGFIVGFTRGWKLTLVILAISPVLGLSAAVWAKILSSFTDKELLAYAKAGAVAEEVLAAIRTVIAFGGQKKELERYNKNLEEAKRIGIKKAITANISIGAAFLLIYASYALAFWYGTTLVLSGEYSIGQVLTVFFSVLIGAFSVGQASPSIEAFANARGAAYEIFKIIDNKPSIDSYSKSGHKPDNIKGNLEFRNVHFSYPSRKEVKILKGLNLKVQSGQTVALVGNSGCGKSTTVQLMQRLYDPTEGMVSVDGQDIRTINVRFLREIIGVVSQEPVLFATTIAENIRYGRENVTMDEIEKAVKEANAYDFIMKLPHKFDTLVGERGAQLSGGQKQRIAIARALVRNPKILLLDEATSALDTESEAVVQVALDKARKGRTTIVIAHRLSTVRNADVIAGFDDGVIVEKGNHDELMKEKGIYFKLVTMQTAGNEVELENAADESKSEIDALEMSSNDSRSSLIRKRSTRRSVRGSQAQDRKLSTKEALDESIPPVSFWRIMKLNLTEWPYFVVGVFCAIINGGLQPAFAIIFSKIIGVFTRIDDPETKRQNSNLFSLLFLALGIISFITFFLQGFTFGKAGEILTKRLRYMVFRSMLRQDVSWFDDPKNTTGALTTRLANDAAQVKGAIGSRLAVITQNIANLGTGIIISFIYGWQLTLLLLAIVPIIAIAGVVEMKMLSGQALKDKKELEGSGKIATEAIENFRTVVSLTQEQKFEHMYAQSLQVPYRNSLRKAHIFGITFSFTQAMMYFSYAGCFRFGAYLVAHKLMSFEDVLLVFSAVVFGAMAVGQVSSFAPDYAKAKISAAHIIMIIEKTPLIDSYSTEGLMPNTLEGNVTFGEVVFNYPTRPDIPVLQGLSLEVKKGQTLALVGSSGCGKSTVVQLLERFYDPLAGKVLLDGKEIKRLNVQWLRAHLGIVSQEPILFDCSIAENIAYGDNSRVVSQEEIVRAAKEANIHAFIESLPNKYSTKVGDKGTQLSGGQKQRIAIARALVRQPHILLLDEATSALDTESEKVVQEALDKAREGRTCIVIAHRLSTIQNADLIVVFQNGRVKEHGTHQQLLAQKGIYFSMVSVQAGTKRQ

The test system of a further data set is LCC6 cells. Kind of data set: IC50 of anticancer drugs in wild-type LCC6 with or without FM04. Type of data set: cell-based, human. The text has this: Table S1. IC50 of anticancer drugs in LCC6 and LCC6MDR and P-gp modulating activity of FM04.
fold): IC50 of an anticancer drug of LCC6MDR without FM04/IC50 of an anticancer of LCC6 with or without
FM04 or LCC6MDR with FM04. N = 2 - 8 independent experiment. The IC50 values were presented as mean ±
standard error mean. /: not determined.

Data set [2] concerns the target T1, P-gp. Kind of data set: Transepithelial transport of PTX, Caco-2 transwell assay. Type of data set: in vitro ADME. The procedure:
Figure 7 Mechanistic study of FM04 to increase the oral PTX absorption. (A) transepithelial permeability of PTX in Caco-2 transwell assay. When confluent monolayer of Caco2 cells was formed on the transwell, the permeability of PTX (10 μM) was studied with or without FM04 (10 μM). For apical to basolateral transport (A to B), compound was added at the apical side (donor) and samples of the medium collected at the basal side (receiver) at 0, 20, 40, 60, 80, 100 and 120 min and vice versa for basal to apical transport (B to A). The PTX level was determined using UPLC-MS/MS. The relative % of PTX was presented as mean ± standard error of mean. N = 2–3 independent experiments. Impact of FM04 on PTX metabolism. […] After incubation, the levels of PTX, metabolites 6α-hydroxpaclitaxel (6α-OHP) and p3′-hydroxpaclitaxel (p3-OHP) were determined by HPLC-MS/MS. (B) changes in PTX. […]
Caco-2 cells in between passage number 21 and 30 were used for the experiment, 1 × 10^5 cells/cm^2 Caco-2 cells were seeded in Costar 6-well transwell plate (Corning Inc). […] The integrity of cell monolayers was evaluated on the day of experiments by measuring the trans-epithelial electrical resistance (TEER) of the cell monolayers. […] Drug transport was evaluated at 37 °C by incubating the cells in media containing PTX (10 μM) with or without FM04 (10 μM) at the donor chamber and samples collected at the receiver chamber. […]
A general note: Caco-2 monolayers are a common model of the intestinal barrier.

Where two headings read alike, the source gives them in different places.

As for `O=c1cc(-c2ccc(OCCOCCNCc3ccccc3)cc2)oc2ccccc12` [FM04, 2-(4-(2-(2-(benzylamino)ethoxy)ethoxy)phenyl)-4H-chromen-4-one], the EC50 at P-gp [1] was 83 ± 7 nM; at P-gp [1] (EC50 for P-gp modulation, range over PTX reversal and DOX accumulation in LCC6MDR), 64 to 83 nM; at P-gp [1] (EC50 for chemosensitizing LCC6MDR towards vinblastine, vincristine, DOX, daunorubicin and mitoxantrone, range over the five drugs) it was 61 to 153 nM; at P-gp [1] (EC50 needed for reversing MDR in LCC6MDR cells: DOX, LCC6MDR), 153 ± 39 nM; at P-gp [1] (EC50 needed for reversing MDR in LCC6MDR cells: Daunorubicin, LCC6MDR), 88 ± 52 nM; at P-gp [1] (EC50 needed for reversing MDR in LCC6MDR cells: Mitoxantrone, LCC6MDR), 64 ± 27 nM. The EC50 on P-gp [1] (EC50 needed for reversing MDR in LCC6MDR cells: PTX, LCC6MDR, PTX resistance) was 83 nM; at P-gp [1] (EC50 needed for reversing MDR in LCC6MDR cells: Vinblastine, LCC6MDR), 61 ± 13 nM; at P-gp [1] (EC50 needed for reversing MDR in LCC6MDR cells: Vincristine, LCC6MDR) it was 83 ± 11 nM. Besides, the “EC50 needed for reversing MDR in LCC6MDR cells: PTX” value on P-gp [1] turned out to be 83 nM. Also, at P-gp [1], the “fold higher potency than FD18 in reversing PTX resistance” value worked out at 1.8 fold. In addition, the “chemosensitization of wild-type LCC6 towards PTX, vinblastine and vincristine” value with LCC6 cells (FM04 1 μM) is “did not chemosensitize the wild-type LCC6 cells”. The “decrease of PTX transport from B to A” value at P-gp [2] (PTX 10 μM + FM04 10 μM) worked out at 17%.

As for `CC(=O)O[C@H]1C(=O)[C@@]2(C)[C@H]([C@H](OC(=O)c3ccccc3)[C@]3(O)C[C@H](OC(=O)[C@H](O)[C@@H](NC(=O)c4ccccc4)c4ccccc4)C(C)=C1C3(C)C)[C@]1(OC(C)=O)CO[C@@H]1C[C@@H]2O` [PTX, paclitaxel], at P-gp [1], the “RF, LCC6MDR + 1 μM FM04” value was found to be 34.1 and the “RF, LCC6MDR + DMSO” value is given as 1.0. In the data set with LCC6 cells (Homo sapiens, LCC-6, wild-type LCC6, no modulator, read-out: IC50 of anticancer drug, LCC6 + DMSO), the IC50 was determined as 2.1 ± 0.5 nM. In the data set with LCC6 cells (IC50 in LCC6MDR without FM04 / IC50 in LCC6), the “RF, LCC6 + DMSO” value was 61.7. In the data set with LCC6 cells (IC50 in LCC6MDR without FM04 / IC50 in LCC6 with FM04), the “RF, LCC6 + 1 μM FM04” value was found to be 43.2. In addition, at P-gp [2] (PTX 10 µM without FM04), the “direction of transepithelial transport of PTX” value was “only pumped from B to A, but not A to B”.

For the origin of these results see PMC9739180, “Discovery of a Flavonoid FM04 as a Potent Inhibitor to Reverse P-Glycoprotein-Mediated Drug Resistance in Xenografts and Improve Oral Bioavailability of Paclitaxel” (International Journal of Molecular Sciences, 2022).
